“And” between values parts separate entries of the source, which are not always exact repeats. Equal values may be shown once. Read-outs that look alike come from different tables or passages of the source.
Key:
[1] = test system: pERK in H2122 xenograft tumors; experiment: In vivo target inhibition/PD, H2122 xenograft, pERK; details: Mus musculus, NCI-H2122; for inhibition at 10 mg/kg: 10 mg/kg single dose
Method: (§1) To evaluate in vivo target inhibition and anti-tumor efficacy of a compound, Human lung cancer cells, H358 or H2122 are implanted into nude mice xenograft tumor models. Either H358 or H2122 cells (10×10^6 in a 1:1 Matrigel® mix, 0.2 mL total volume) are implanted by subcutaneous injection in hind leg of nude female mice (Harlan Laboratories). A total of 5 mice each group are used for efficacy study, and a total of 3-4 mice each group are used for target engagement and PD study. Treatment is initiated with oral administration (gavage) of a test compound or vehicle (20% Captisol®, 25 mM phosphate, pH 2.0 in 0.2 mL volume when the tumor size reaches approximately […]. Tumor growth and body weight are monitored over time to evaluate efficacy and signs of toxicity. Bidimensional measurements of tumors are performed twice a week and tumor volumes are calculated based on mid-axis length and mid-axis width. Tumor volume data are transformed to a log scale to equalize variance across time and treatment groups. The log volume data are analyzed with a two-way repeated measures analysis of variance by time and treatment using the mixed procedures in SAS software (version 8.2). The correlation model for the repeated measures is spatial power. Treated groups are compared to the control group at each time point. The mixed procedure is also used separately for each treatment group to calculate adjusted means and standard errors at each time point. Both analyses account for the autocorrelation within each animal. The adjusted means and standard errors are plotted for each treatment group versus time.
For in vivo target inhibition and PD analysis, tumors are ground by mortar and pestle on dry ice and tumor fragments are added to 800 μL of lysis buffer containing 1% Triton X100, 25 mM Tris pH 7.5, 150 mM NaCl, 1 mM EDTA, and 1 mM EGTA with Halt protease and phosphatase inhibitor cocktail (Thermo Scientific, cat. no. 1861281) in lysing matrix D tubes (MP Biomedical®, cat. no. 6913-500) with one additional large bead (MP Biomedical® ¼″ ceramic sphere bead cat. no. 6540-412) per tube. Tumor fragments are homogenized in a Thermo Bio101® fast prep (FP120) at setting 4 for […] while cold for a total of 2 times. Lysates are spun at 14,000 rpm for 10 min at 4° C. to clarify. Protein estimation is done on the lysate supernatant using a BioRad Dc® protein assay and lysates are diluted in complete lysis/binding buffer from the Ras GTPase Chemi ELISA Kit® (Active Motif, cat. no. 52097). The active KRas ELISA was performed as follows: Glutathione-coated ELISA wells were incubated with diluted RAF1-GST in complete lysis/binding buffer for 1 hr at 4° C. with gentle agitation. Wells are washed 3 times with wash buffer and 100 μg of lysates are added to each well and incubated at RT for 1 hr with mild agitation. The wells are washed an additional 3 times, then primary antibody, diluted in antibody binding buffer, is added to each well. The plates are incubated for 1 hr. The wells are washed 3 more times before adding HRP-conjugated secondary antibody, diluted in antibody binding buffer, to each well. The plates are incubated at RT for 1 hr. ELISA wells are washed 4 times, chemiluminescent reagents is added and then luminescence is read. For pERK Meso Scale Discovery ELISA, 25 μg of protein containing 0.1% SDS is used; for pMEK Meso Scale Discovery ELISA, 50 μg of protein without SDS is used. Meso Scale Discovery Whole Cell Lysate Kits for pERK and pMEK are provided by Meso Scale Discovery.
After a single dose, the tumor samples are harvested at different time points. The tumor lysates are prepared as described above. The inhibition of pERK, pMEK, and active KRas is measured as described above.

H2122 xenograft = experiment: Anti-tumor growth activity, lung cancer H2122 xenograft mouse model; assay type: in vivo; details: for Tumor Growth Inhibition (%) or Regression (−%): H2122 Lung
Method: as §1
H2122 lung tumor cells (10×10^6) are implanted by subcutaneous injection in hind leg of nude female mice (Taconic Biosciences). A total of 5 mice each group are used for efficacy study.

Miapaca-2 = experiment: CellTiterGlo Cell Proliferation Assay, Miapaca-2; assay type: cell-based; details: Homo sapiens, MIA PaCa-2, KRas G12C, Pancreas, 96 hr
Method: (§2) A panel of tumor cell lines harboring KRas G12C or other KRas mutations are collected (Table 6). All cell lines are from ATCC or other sources indicated.
(§3) Typically cells are cultured in RPMI1640 or Dulbecco's modified Eagle's medium (DMEM, GIBCO) supplemented with 10% FBS (GIBCO, Invitrogen). For 2D culture cells (4×10^3/well) maintained in growth medium described above, are plated onto 96 well tissue culture plates Corning® Cat. 3603) a day before the treatment. For 3D culture 8000 cells/well are seeded onto 96 well ultra-low attachment tissue culture plates (Corning, #3474). The cells are treated compound for 96 hr, and then are analyzed for viability using the CellTiterGlo® Luminescent Cell Viability Assay® (Promega #G7572 for 2D and Promega #G9683 for 3D cultures) according to manufacturer's instructions and an EnVision™ plate reader. Nonlinear regression and sigmoidal dose-response curves are used to calculate the half maximal inhibitory concentration (IC50) with GraphPad Prism 4® software.

SW756 = experiment: CellTiterGlo Cell Proliferation Assay, SW756; assay type: cell-based; details: Homo sapiens, KRas G12C, Cervix, 96 hr
Method: as §2, §3

A549 = experiment: CellTiterGlo Cell Proliferation Assay, A549; assay type: cell-based; details: KRas G12S, lung, 96 hr; for IC50: Homo sapiens
Method: as §2, §3

[2] = read-out: IC50 (μM) in 2 D cell proliferation
[3] = read-out: IC50 (μM) in 3 D spheroid cell proliferation

IC50 (Miapaca-2; [2]): 0.014 µM | IC50 (Miapaca-2; [3]): 0.086 µM | IC50 (SW756; [2]): 1.15 µM | IC50 (SW756; [3]): 7.83 µM | IC50 (A549; [2]): 17.7 µM | IC50 (A549; [3]): 5.94 µM | IC50 (μM) in 2 D cell proliferation (A549): little activity | IC50 (μM) in 3 D spheroid cell proliferation (A549): little activity
Structure (SMILES): C=CC(=O)N1CCN(c2ncnc3c(F)c(-c4ccc(F)c5sc(N)nc45)c(Cl)cc23)CC1 [Example 1, 1-{4-[7-(2-Amino-7-fluoro-1,3-benzothiazol-4-yl)-6-chloro-8-fluoroquinazolin-4-yl]piperazin-1-yl}prop-2-en-1-one]
inhibition at 10 mg/kg ([1]; H2122 xenograft, 2 hr, read-out: % Inhibition pERK): 46.8% | inhibition at 10 mg/kg ([1]; H2122 xenograft, 4 hr, read-out: % Inhibition pERK): 47% | inhibition at 10 mg/kg ([1]; H2122 xenograft, 8 hr, read-out: % Inhibition pERK): 34.5% | inhibition at 10 mg/kg ([1]; H2122 xenograft, 12 hr, read-out: % Inhibition pERK): 7.2% | inhibition at 10 mg/kg ([1]; H2122 xenograft, 24 hr, read-out: % Inhibition pERK): -2.8% | inhibition at 10 mg/kg ([1]; H2122 xenograft, from 2-12 hr, read-out: pERK inhibition): 7 to 47% | inhibition at 30 mg/kg ([1]; H2122 xenograft, 30 mg/kg single dose, 2 hr, read-out: % Inhibition pERK): 75.6% | inhibition at 30 mg/kg ([1]; H2122 xenograft, 30 mg/kg single dose, 4 hr, read-out: % Inhibition pERK): 75.3% | inhibition at 30 mg/kg ([1]; H2122 xenograft, 30 mg/kg single dose, 8 hr, read-out: % Inhibition pERK): 67.4% | inhibition at 30 mg/kg ([1]; H2122 xenograft, 30 mg/kg single dose, 12 hr, read-out: % Inhibition pERK): 48.8% | inhibition at 30 mg/kg ([1]; H2122 xenograft, 30 mg/kg single dose, 24 hr, read-out: % Inhibition pERK): 20.4% | inhibition at 100 mg/kg ([1]; H2122 xenograft, 100 mg/kg single dose, 4 hr): 79.1% | inhibition at 30 mg/kg ([1]; read-out: pERK inhibition): 49 to 76% | Tumor Growth Inhibition (%) or Regression (−%) (H2122 xenograft; 30 mg/kg BID, 28 Day, oral, negative = regression): 72.97% | Tumor Growth Inhibition (%) or Regression (−%) (H2122 xenograft; 30 mg/kg QD, 28 Day, oral, negative = regression, 30 mg/kg): 77.17% and 77.2% | Tumor Growth Inhibition (%) or Regression (−%) (H2122 xenograft; 100 mg/kg QD, 28 Day, oral, negative = regression, 100 mg/kg): 91.06% and 91.1% | Tumor Growth Inhibition (%) or Regression (−%) (H2122 xenograft; Example 1 30 mg/kg QDx28): 77.2 | Tumor Growth Inhibition (%) or Regression (−%) (H2122 xenograft; Example 1 100 mg/kg QDx28): −1.4 | animal body weight loss (H2122 xenograft; H2122 xenograft mice, 30 mg/kg once or twice daily or 100 mg/kg once daily for 28 days, oral): No significant animal body weight loss was observed

From US10968214B2, “KRas G12C inhibitors” (Eli Lilly and Company, priority 2018, dated 2021)
